ChEMBL document CHEMBL1201862, “PubChem BioAssay data set” (2004)
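Interpolation was linear, between the two tested concentrations surrounding the appropriate level; five concentrations were tested over 48 hours in 96-well plates. GI50 marks 50% less growth.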 Calls of active or inactive are those of the source. Cut-off read from the data, not from the text of the source: active = GI50 up to about 1.1 µM and inactive = higher.

How the values were obtained:
Experiment in all cases: DTP human tumour cell line panel, 48 h
COLO 205 = system: COLO 205
Malme-3M = system: Malme-3M
A498 = system: A498
SK-OV-3 = system: SK-OV-3
MOLT-4 = system: MOLT-4
MCF7 = system: MCF7
MDA-MB-231 = system: MDA-MB-231
RXF 393 = system: RXF 393
HCC 2998 = system: HCC 2998
HT-29 = system: HT-29
DU-145 = system: DU-145
PC-3 = system: PC-3
NCI-H522 = system: NCI-H522
KM12 = system: KM12
U-251 = system: U-251
SK-MEL-5 = system: SK-MEL-5
UO-31 = system: UO-31
SF-295 = system: SF-295
HOP-92 = system: HOP-92
HOP-62 = system: HOP-62

Row | SMILES | GI50 (COLO 205) | GI50 (Malme-3M) | GI50 (A498) | GI50 (SK-OV-3) | GI50 (MOLT-4) | GI50 (MCF7) | GI50 (MDA-MB-231) | GI50 (RXF 393) | GI50 (HCC 2998) | GI50 (HT-29) | GI50 (DU-145) | GI50 (PC-3) | GI50 (NCI-H522) | GI50 (KM12) | GI50 (U-251) | GI50 (SK-MEL-5) | GI50 (UO-31) | GI50 (SF-295) | GI50 (HOP-92) | GI50 (HOP-62)
1 | CCC(C)C1=C(O)[N+]2([O-])Oc3ccc(-c4c(O)c(O)c(-c5ccc(O)cc5)c(OC(C)=O)c4OC(C)=O)cc3OC2(C(C)CC)C(=O)N1O (stereo not drawn) | > 50 µM (inactive) | > 50 µM (inactive) | > 50 µM (inactive) | > 50 µM (inactive) | 43.8 µM (inactive) | > 50 µM (inactive) | > 50 µM (inactive) | > 50 µM (inactive) | 0.005 µM (active) | > 50 µM (inactive) | > 50 µM (inactive) | > 50 µM (inactive) | 23.5 µM (inactive) | > 50 µM (inactive) | > 50 µM (inactive) | > 50 µM (inactive) | > 50 µM (inactive) | > 50 µM (inactive) |  | 
2 | Cc1cc2nc(N3C(=O)/C(=C/Cc4ccco4)N=C3c3ccccc3)sc2cc1C | 28 µM (inactive) |  |  | 92 µM (inactive) | 20.3 µM (inactive) | 13.4 µM (inactive) | 51.5 µM (inactive) | 13.6 µM (inactive) | 24.6 µM (inactive) | 23.7 µM (inactive) | 61.9 µM (inactive) | 12.1 µM (inactive) |  | 25.9 µM (inactive) | 29 µM (inactive) | 22.3 µM (inactive) | 26.6 µM (inactive) | 43.8 µM (inactive) | 10.2 µM (inactive) | 54.7 µM (inactive)
3 | Cn1c(=O)c2c(nc3sc4nc5ccccc5nc4n32)n(C)c1=O | > 100 µM (inactive) | > 100 µM (inactive) | > 100 µM (inactive) | > 100 µM (inactive) | > 100 µM (inactive) | > 100 µM (inactive) | > 100 µM (inactive) | > 100 µM (inactive) | > 100 µM (inactive) | > 100 µM (inactive) | > 100 µM (inactive) | > 100 µM (inactive) |  | > 100 µM (inactive) | > 100 µM (inactive) | 32.7 µM (inactive) | > 100 µM (inactive) | 49.5 µM (inactive) | > 100 µM (inactive) | 
4 | O=C1/C(=C\c2ccc(Cl)cc2Cl)Sc2scc(-c3ccc(O)c(O)c3)[n+]21 | 19 µM (inactive) |  |  | 15.8 µM (inactive) | 9.64 µM (inactive) | 16.2 µM (inactive) | 16.5 µM (inactive) | 12.4 µM (inactive) | 17 µM (inactive) | 16.7 µM (inactive) | 18.3 µM (inactive) | 13.7 µM (inactive) | 16.5 µM (inactive) | 15.1 µM (inactive) | 11.9 µM (inactive) | 7.98 µM (inactive) | 13 µM (inactive) | 17.4 µM (inactive) | 7.76 µM (inactive) | 15.6 µM (inactive)
5 | Cc1ccc([S+]([O-])C[C@](NC(=O)OCc2ccccc2)(Sc2ccccc2)C(F)F)cc1 (stereo partly drawn) | 19.4 µM (inactive) | 21.3 µM (inactive) | 13.5 µM (inactive) | 16.7 µM (inactive) | 3.4 µM (inactive) |  | 19.4 µM (inactive) | 21.7 µM (inactive) | 18.7 µM (inactive) | 16.6 µM (inactive) | 18.7 µM (inactive) | 21.2 µM (inactive) | 7.13 µM (inactive) | 14.6 µM (inactive) | 17 µM (inactive) | 13.3 µM (inactive) | 6.56 µM (inactive) | 16.8 µM (inactive) | 17.8 µM (inactive) | 35.8 µM (inactive)
6 | N#Cc1nc(Cc2cccs2)oc1N |  |  | > 100 µM (inactive) | > 100 µM (inactive) | > 100 µM (inactive) | > 100 µM (inactive) | > 100 µM (inactive) | > 100 µM (inactive) |  | > 100 µM (inactive) | > 100 µM (inactive) | > 100 µM (inactive) |  | > 100 µM (inactive) | > 100 µM (inactive) | > 100 µM (inactive) | 27.5 µM (inactive) |  | > 100 µM (inactive) | > 100 µM (inactive)
7 | CC(C)(C)c1c(C(C)(C)C)c(=O)c1=O | > 100 µM (inactive) | > 100 µM (inactive) | 86.1 µM (inactive) | > 100 µM (inactive) | > 100 µM (inactive) | > 100 µM (inactive) | > 100 µM (inactive) | > 100 µM (inactive) | > 100 µM (inactive) | > 100 µM (inactive) | > 100 µM (inactive) | > 100 µM (inactive) |  | > 100 µM (inactive) | > 100 µM (inactive) | > 100 µM (inactive) | > 100 µM (inactive) | > 100 µM (inactive) | > 100 µM (inactive) | > 100 µM (inactive)
8 | CC(=O)NCCc1c[nH]c2ccc(Cl)cc12 | > 100 µM (inactive) | > 100 µM (inactive) |  | > 100 µM (inactive) | > 100 µM (inactive) | > 100 µM (inactive) | > 100 µM (inactive) | > 100 µM (inactive) | 74.8 µM (inactive) | > 100 µM (inactive) | > 100 µM (inactive) | > 100 µM (inactive) | 91 µM (inactive) | > 100 µM (inactive) | > 100 µM (inactive) | > 100 µM (inactive) | > 100 µM (inactive) | > 100 µM (inactive) | 79.8 µM (inactive) | > 100 µM (inactive)
